Experimental data reported in patent US6696497B2, “Fungicidal mixtures” (BASF Aktiengesellschaft, priority 2000, dated 2004).

Experiments:
[1] = tested on: Plasmopara viticola on grapes; assay: Fungicidal efficacy (2 day curative) on grapes, greenhouse; format: in vivo; details: single compound
Method: (§1) The trials are carried out under greenhouse conditions in residual or curative applications. The fungicides are applied in single treatments, or in a combination comprising a benzophenone of formula I and a compound of formula II. The compounds are applied in form of an aqueous spray mix obtained from concentrated formulation or the technical material.
(§2) Grape plants of variety “Mueller-Thurgau” are grown in the greenhouse from small stake cuttings. When about 40 cm high, the number of leaves is reduced to 4 fully expanded leaves per plant.
(§3) The compounds are dissolved in acetone with 0.5% TRITON™ X155 (an alkylaryl polyether alcohol), and sprayed in concentrations and combinations as given in tables I and II with a three nozzle overhead fungicide sprayer to near run-off. Plants are then allowed to air-dry.
(§4) Inoculation precedes treatment in the case of curative evaluations and follows treatment in case of residual evaluations.
(§5) For inoculation an aqueous spore suspension of the pathogen is applied to the plant and the plants are kept 1-2 days in a moist infection chamber before being returned to the greenhouse where they are maintained by bottom watering.
(§6) Disease on the foliage as percent leaf area with disease symptoms/signs is evaluated about 7 days after inoculation. [formula]
(§7) Assessments of the diseases took place at the indicated day after the application of the compounds. Percent infected leaf area infected was evaluated. The efficacy of the compounds/compounds mixtures to control the diseases was calculated by using the formula given above.
(§8) Synergy was calculated using the % disease control values of specific treatments for the two COLBY formula given hereinabove.
Fungicidal efficacy of the mixture of BP-4+iprovalicarb (2 day curative) against Plasmopara viticola on grapes
The tank mix was obtained from technical materials of BP-4 and iprovalicarb.

[2] = tested on: Plasmopara viticola on grapes; assay: Fungicidal efficacy (3 day residual) on grapes, greenhouse; format: in vivo; details: single compound
Method: as §1, §2, §3, §4, §5, §6, §7, §8
Fungicidal efficacy of the mixture of BP-4+iprovalicarb (3 day residual) against Plasmopara viticola on grapes
tank mix was obtained from technical materials of BP-4 and iprovalicarb.

| SMILES | Observed Efficacy ([1]; dose rate 0.037 ppm) [%] | Observed Efficacy ([1]; dose rate 0.11 ppm) [%] | Observed Efficacy ([1]; dose rate 0.33 ppm) [%] | Observed Efficacy ([1]; dose rate 1 ppm) [%] | Observed Efficacy ([1]; dose rate 3 ppm) [%] | Observed Efficacy ([1]; dose rate 9 ppm) [%] | Observed Efficacy ([1]; dose rate 27 ppm) [%] | Observed Efficacy ([2]; dose rate 0.037 ppm) [%] | Observed Efficacy ([2]; dose rate 0.11 ppm) [%] | Observed Efficacy ([2]; dose rate 0.33 ppm) [%] | Observed Efficacy ([2]; dose rate 1 ppm) [%] | Observed Efficacy ([2]; dose rate 3 ppm) [%] | Observed Efficacy ([2]; dose rate 9 ppm) [%] | Observed Efficacy ([2]; dose rate 27 ppm) [%] |
| --- | --- | --- | --- | --- | --- | --- | --- | --- | --- | --- | --- | --- | --- | --- |
| COc1cc(C)c(C(=O)c2c(OC)ccc(Br)c2C)c(OC)c1OC [BP-4, 5-bromo-2′,6-dimethyl-2,4′,5′,6′-tetramethoxybenzophenone] | 0 | 0 | 0 | 0 | 0 | 0 | 2 | 0 | 0 | 0 | 0 | 1 | 4 | 6 |
| Cc1ccc(C(C)NC(=O)C(NC(=O)OC(C)C)C(C)C)cc1 (stereo not drawn) [iprovalicarb, [2-methyl-1-[1-(4-methylphenyl)-ethylaminocarbonyl]-propyl]-carbamic acid isopropyl ester, reference compound] | – | 0 | 2 | 11 | 63 | 91 | – | – | 0 | 3 | 11 | 55 | 90 | – |
